# From the supplement of paper PMC4862054
# System: MDA-MB-453
# Test: normalised viability (% of control), CellTiter-Blue; higher = more viable cells (about 100 = DMSO control)
# Conditions: 10 nM; incubation time: 72 h
# Method: (§1)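 DSRT, CellTiter-Blue viability, 72 h incubation. Signal is normalised to DMSO and benzethonium chloride controls. Value is the normalised response at dose 3.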
row,SMILES,normalised viability [%]
1,COc1cc2/c(=N/c3ccc(Br)cc3F)nc[nH]c2cc1OCC1CCN(C)CC1 [Vandetanib],104
2,COCC[n+]1c2c(n(Cc3cnccn3)c1C)C(=O)c1ccccc1C2=O [YM155],44.7

# Same assay, conditions: 100 nM; incubation time: 72 h
row,SMILES,normalised viability [%]
1,S=P(N1CC1)(N1CC1)N1CC1 [Thio-TEPA],97.6

# System: MDA-MB-468
# Test: as above
# Conditions: 100 nM; incubation time: 72 h
# Method: as §1
row,SMILES,normalised viability [%]
1,c1ccc2c(CCNc3ccc(Nc4ccncc4)cc3)c[nH]c2c1 [Serdemetan],108
2,CN(C)CCOc1ccc(/C(=C(/CCCl)c2ccccc2)c2ccccc2)cc1 [Toremifene],106
3,CC(C)C[C@@H](C(=O)N[C@H](C(=O)OC1CCCC1)c1ccccc1)[C@H](O)C(=O)NO [Tosedostat],64.6
4,COc1cc2/c(=N/c3ccc(Br)cc3F)nc[nH]c2cc1OCC1CCN(C)CC1 [Vandetanib],93.8
5,COCC[n+]1c2c(n(Cc3cnccn3)c1C)C(=O)c1ccccc1C2=O [YM155],0.74

# Same assay, conditions: 1000 nM; incubation time: 72 h
row,SMILES,normalised viability [%]
1,S=P(N1CC1)(N1CC1)N1CC1 [Thio-TEPA],103

# System: MFM-223
# Test: as above
# Conditions: 100 nM; incubation time: 72 h
# Method: as §1
row,SMILES,normalised viability [%]
1,c1ccc2c(CCNc3ccc(Nc4ccncc4)cc3)c[nH]c2c1 [Serdemetan],92.4
2,CN(C)CCOc1ccc(/C(=C(/CCCl)c2ccccc2)c2ccccc2)cc1 [Toremifene],99.8
3,CC(C)C[C@@H](C(=O)N[C@H](C(=O)OC1CCCC1)c1ccccc1)[C@H](O)C(=O)NO [Tosedostat],79.8
4,COc1cc2/c(=N/c3ccc(Br)cc3F)nc[nH]c2cc1OCC1CCN(C)CC1 [Vandetanib],112
5,COCC[n+]1c2c(n(Cc3cnccn3)c1C)C(=O)c1ccccc1C2=O [YM155],26.1

# Same assay, conditions: 1000 nM; incubation time: 72 h
row,SMILES,normalised viability [%]
1,S=P(N1CC1)(N1CC1)N1CC1 [Thio-TEPA],88.4

# System: SK-BR-3
# Test: as above
# Conditions: 100 nM; incubation time: 72 h
# Method: as §1
row,SMILES,normalised viability [%]
1,c1ccc2c(CCNc3ccc(Nc4ccncc4)cc3)c[nH]c2c1 [Serdemetan],79.7
2,CN(C)CCOc1ccc(/C(=C(/CCCl)c2ccccc2)c2ccccc2)cc1 [Toremifene],88.8
3,CC(C)C[C@@H](C(=O)N[C@H](C(=O)OC1CCCC1)c1ccccc1)[C@H](O)C(=O)NO [Tosedostat],88.7
4,COc1cc2/c(=N/c3ccc(Br)cc3F)nc[nH]c2cc1OCC1CCN(C)CC1 [Vandetanib],63.8
5,COCC[n+]1c2c(n(Cc3cnccn3)c1C)C(=O)c1ccccc1C2=O [YM155],1.25

# Same assay, conditions: 1000 nM; incubation time: 72 h
row,SMILES,normalised viability [%]
1,S=P(N1CC1)(N1CC1)N1CC1 [Thio-TEPA],91.1

# System: BT-474
# Test: drug sensitivity score (DSS), CellTiter-Glo (DSS (AUC-based score)); higher = stronger drug effect (viability inhibition or cytotoxicity); extreme values may be limits of the assay
# Conditions: incubation time: 72 h
# In short: (§2)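 The area under the fitted dose-response curve was used to calculate the drug sensitivity score. Cells from breast cancer lines were incubated for 72 h in 384-well plates with compound at 5 concentrations spaced 10-fold over a 10,000-fold range specific to each compound. Plates were read for CellTox Green and then CellTiter-Glo, and normalised to 0.1 % DMSO and a positive kill control.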
row,SMILES,drug sensitivity score
1,c1ccc2c(CCNc3ccc(Nc4ccncc4)cc3)c[nH]c2c1 [Serdemetan],4.79
2,S=P(N1CC1)(N1CC1)N1CC1 [Thio-TEPA],0
3,CN(C)CCOc1ccc(/C(=C(/CCCl)c2ccccc2)c2ccccc2)cc1 [Toremifene],1.35
4,CC(C)C[C@@H](C(=O)N[C@H](C(=O)OC1CCCC1)c1ccccc1)[C@H](O)C(=O)NO [Tosedostat],16.9
5,COc1cc2/c(=N/c3ccc(Br)cc3F)nc[nH]c2cc1OCC1CCN(C)CC1 [Vandetanib],3.47
6,COCC[n+]1c2c(n(Cc3cnccn3)c1C)C(=O)c1ccccc1C2=O [YM155],40

# System: CAL-85-1
# Test: as above
# Conditions: incubation time: 72 h
# In short: as §2
row,SMILES,drug sensitivity score
1,c1ccc2c(CCNc3ccc(Nc4ccncc4)cc3)c[nH]c2c1 [Serdemetan],1.35
2,S=P(N1CC1)(N1CC1)N1CC1 [Thio-TEPA],0
3,CN(C)CCOc1ccc(/C(=C(/CCCl)c2ccccc2)c2ccccc2)cc1 [Toremifene],0
4,CC(C)C[C@@H](C(=O)N[C@H](C(=O)OC1CCCC1)c1ccccc1)[C@H](O)C(=O)NO [Tosedostat],12.7
5,COc1cc2/c(=N/c3ccc(Br)cc3F)nc[nH]c2cc1OCC1CCN(C)CC1 [Vandetanib],0
6,COCC[n+]1c2c(n(Cc3cnccn3)c1C)C(=O)c1ccccc1C2=O [YM155],39.2

# System: HCC1599
# Test: as above
# Conditions: incubation time: 72 h
# In short: as §2
row,SMILES,drug sensitivity score
1,c1ccc2c(CCNc3ccc(Nc4ccncc4)cc3)c[nH]c2c1 [Serdemetan],3.17
2,S=P(N1CC1)(N1CC1)N1CC1 [Thio-TEPA],0
3,CN(C)CCOc1ccc(/C(=C(/CCCl)c2ccccc2)c2ccccc2)cc1 [Toremifene],0
4,CC(C)C[C@@H](C(=O)N[C@H](C(=O)OC1CCCC1)c1ccccc1)[C@H](O)C(=O)NO [Tosedostat],0
5,COc1cc2/c(=N/c3ccc(Br)cc3F)nc[nH]c2cc1OCC1CCN(C)CC1 [Vandetanib],0
6,COCC[n+]1c2c(n(Cc3cnccn3)c1C)C(=O)c1ccccc1C2=O [YM155],35.3

# System: Hs578T
# Test: as above
# Conditions: incubation time: 72 h
# In short: as §2
row,SMILES,drug sensitivity score
1,c1ccc2c(CCNc3ccc(Nc4ccncc4)cc3)c[nH]c2c1 [Serdemetan],0.96
2,S=P(N1CC1)(N1CC1)N1CC1 [Thio-TEPA],0
3,CN(C)CCOc1ccc(/C(=C(/CCCl)c2ccccc2)c2ccccc2)cc1 [Toremifene],0
4,CC(C)C[C@@H](C(=O)N[C@H](C(=O)OC1CCCC1)c1ccccc1)[C@H](O)C(=O)NO [Tosedostat],2.74
5,COc1cc2/c(=N/c3ccc(Br)cc3F)nc[nH]c2cc1OCC1CCN(C)CC1 [Vandetanib],0
6,COCC[n+]1c2c(n(Cc3cnccn3)c1C)C(=O)c1ccccc1C2=O [YM155],18.8

# System: MCF-10A
# Test: as above
# Conditions: incubation time: 72 h
# In short: as §2
row,SMILES,drug sensitivity score
1,c1ccc2c(CCNc3ccc(Nc4ccncc4)cc3)c[nH]c2c1 [Serdemetan],0
2,S=P(N1CC1)(N1CC1)N1CC1 [Thio-TEPA],0
3,CN(C)CCOc1ccc(/C(=C(/CCCl)c2ccccc2)c2ccccc2)cc1 [Toremifene],1.79
4,CC(C)C[C@@H](C(=O)N[C@H](C(=O)OC1CCCC1)c1ccccc1)[C@H](O)C(=O)NO [Tosedostat],0
5,COc1cc2/c(=N/c3ccc(Br)cc3F)nc[nH]c2cc1OCC1CCN(C)CC1 [Vandetanib],10.3
6,COCC[n+]1c2c(n(Cc3cnccn3)c1C)C(=O)c1ccccc1C2=O [YM155],29.5

# System: MDA-MB-231
# Test: as above
# Conditions: incubation time: 72 h
# In short: as §2
row,SMILES,drug sensitivity score
1,c1ccc2c(CCNc3ccc(Nc4ccncc4)cc3)c[nH]c2c1 [Serdemetan],3.86
2,S=P(N1CC1)(N1CC1)N1CC1 [Thio-TEPA],0
3,CN(C)CCOc1ccc(/C(=C(/CCCl)c2ccccc2)c2ccccc2)cc1 [Toremifene],0
4,CC(C)C[C@@H](C(=O)N[C@H](C(=O)OC1CCCC1)c1ccccc1)[C@H](O)C(=O)NO [Tosedostat],11.1
5,COc1cc2/c(=N/c3ccc(Br)cc3F)nc[nH]c2cc1OCC1CCN(C)CC1 [Vandetanib],0
6,COCC[n+]1c2c(n(Cc3cnccn3)c1C)C(=O)c1ccccc1C2=O [YM155],37.8

# System: MDA-MB-436
# Test: as above
# Conditions: incubation time: 72 h
# In short: as §2
row,SMILES,drug sensitivity score
1,c1ccc2c(CCNc3ccc(Nc4ccncc4)cc3)c[nH]c2c1 [Serdemetan],2.94
2,S=P(N1CC1)(N1CC1)N1CC1 [Thio-TEPA],0
3,CN(C)CCOc1ccc(/C(=C(/CCCl)c2ccccc2)c2ccccc2)cc1 [Toremifene],0
4,CC(C)C[C@@H](C(=O)N[C@H](C(=O)OC1CCCC1)c1ccccc1)[C@H](O)C(=O)NO [Tosedostat],5.37
5,COc1cc2/c(=N/c3ccc(Br)cc3F)nc[nH]c2cc1OCC1CCN(C)CC1 [Vandetanib],0.551
6,COCC[n+]1c2c(n(Cc3cnccn3)c1C)C(=O)c1ccccc1C2=O [YM155],40.6

# System: MDA-MB-468
# Test: as above
# Conditions: incubation time: 72 h
# In short: as §2
row,SMILES,drug sensitivity score
1,c1ccc2c(CCNc3ccc(Nc4ccncc4)cc3)c[nH]c2c1 [Serdemetan],7.12
2,S=P(N1CC1)(N1CC1)N1CC1 [Thio-TEPA],0
3,CN(C)CCOc1ccc(/C(=C(/CCCl)c2ccccc2)c2ccccc2)cc1 [Toremifene],0
4,CC(C)C[C@@H](C(=O)N[C@H](C(=O)OC1CCCC1)c1ccccc1)[C@H](O)C(=O)NO [Tosedostat],19.1
5,COc1cc2/c(=N/c3ccc(Br)cc3F)nc[nH]c2cc1OCC1CCN(C)CC1 [Vandetanib],4.76
6,COCC[n+]1c2c(n(Cc3cnccn3)c1C)C(=O)c1ccccc1C2=O [YM155],41.9

# System: MFM-223
# Test: as above
# Conditions: incubation time: 72 h
# In short: as §2
row,SMILES,drug sensitivity score
1,c1ccc2c(CCNc3ccc(Nc4ccncc4)cc3)c[nH]c2c1 [Serdemetan],1.34
2,S=P(N1CC1)(N1CC1)N1CC1 [Thio-TEPA],0
3,CN(C)CCOc1ccc(/C(=C(/CCCl)c2ccccc2)c2ccccc2)cc1 [Toremifene],0.949
4,CC(C)C[C@@H](C(=O)N[C@H](C(=O)OC1CCCC1)c1ccccc1)[C@H](O)C(=O)NO [Tosedostat],6.14
5,COc1cc2/c(=N/c3ccc(Br)cc3F)nc[nH]c2cc1OCC1CCN(C)CC1 [Vandetanib],0.335
6,COCC[n+]1c2c(n(Cc3cnccn3)c1C)C(=O)c1ccccc1C2=O [YM155],28.4

# System: BT-474
# Test: drug sensitivity score (DSS), CellTox Green (DSS (AUC-based score)); higher = stronger drug effect (viability inhibition or cytotoxicity); extreme values may be limits of the assay
# Conditions: incubation time: 72 h
# In short: as §2
row,SMILES,drug sensitivity score
1,c1ccc2c(CCNc3ccc(Nc4ccncc4)cc3)c[nH]c2c1 [Serdemetan],0
2,S=P(N1CC1)(N1CC1)N1CC1 [Thio-TEPA],0
3,CN(C)CCOc1ccc(/C(=C(/CCCl)c2ccccc2)c2ccccc2)cc1 [Toremifene],2.47
4,CC(C)C[C@@H](C(=O)N[C@H](C(=O)OC1CCCC1)c1ccccc1)[C@H](O)C(=O)NO [Tosedostat],2.81
5,COc1cc2/c(=N/c3ccc(Br)cc3F)nc[nH]c2cc1OCC1CCN(C)CC1 [Vandetanib],0
6,COCC[n+]1c2c(n(Cc3cnccn3)c1C)C(=O)c1ccccc1C2=O [YM155],33.6

# System: BT-549
# Test: as above
# Conditions: incubation time: 72 h
# In short: as §2
row,SMILES,drug sensitivity score
1,c1ccc2c(CCNc3ccc(Nc4ccncc4)cc3)c[nH]c2c1 [Serdemetan],0
2,S=P(N1CC1)(N1CC1)N1CC1 [Thio-TEPA],0
3,CN(C)CCOc1ccc(/C(=C(/CCCl)c2ccccc2)c2ccccc2)cc1 [Toremifene],0
4,CC(C)C[C@@H](C(=O)N[C@H](C(=O)OC1CCCC1)c1ccccc1)[C@H](O)C(=O)NO [Tosedostat],9.06
5,COc1cc2/c(=N/c3ccc(Br)cc3F)nc[nH]c2cc1OCC1CCN(C)CC1 [Vandetanib],0
6,COCC[n+]1c2c(n(Cc3cnccn3)c1C)C(=O)c1ccccc1C2=O [YM155],20.2
